In patent US7348425B2, “Inhibitors of HCV replication” (Bristol-Myers Squibb Company, priority 2004, dated 2008) one finds EC50 and IC50 data, which are given here for 41 compounds.

For one experiment, the system named is HCV replicon. Description: HCV replicon FRET assay. The experiment is classed as cell-based. The following applies: Hepatitis C virus; FRET assay; read-out: EC50. The essentials: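 Replicon cells (± Renilla luciferase reporter) incubated with titrated compound at 37 °C; NS3 protease activity read by FRET peptide cleavage (20 uM EDANS/DABCYL substrate, 340/490 nm kinetic) or luciferase.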
Background: A replicon is a self-replicating genome or part of one, used to study replication in cells.

The target in experiment [1] is T1, HCV NS5B RdRp genotype 1b (Hepatitis C virus genotype 1b, UniProt Q9WMX2).
T1 construct: The protein was expressed with an 18 amino acid C-terminal truncation to enhance the solubility; made in house; host or cells: E. coli BL21 (DE3), pET21a
T1 sequence (Q9WMX2 2420-2992): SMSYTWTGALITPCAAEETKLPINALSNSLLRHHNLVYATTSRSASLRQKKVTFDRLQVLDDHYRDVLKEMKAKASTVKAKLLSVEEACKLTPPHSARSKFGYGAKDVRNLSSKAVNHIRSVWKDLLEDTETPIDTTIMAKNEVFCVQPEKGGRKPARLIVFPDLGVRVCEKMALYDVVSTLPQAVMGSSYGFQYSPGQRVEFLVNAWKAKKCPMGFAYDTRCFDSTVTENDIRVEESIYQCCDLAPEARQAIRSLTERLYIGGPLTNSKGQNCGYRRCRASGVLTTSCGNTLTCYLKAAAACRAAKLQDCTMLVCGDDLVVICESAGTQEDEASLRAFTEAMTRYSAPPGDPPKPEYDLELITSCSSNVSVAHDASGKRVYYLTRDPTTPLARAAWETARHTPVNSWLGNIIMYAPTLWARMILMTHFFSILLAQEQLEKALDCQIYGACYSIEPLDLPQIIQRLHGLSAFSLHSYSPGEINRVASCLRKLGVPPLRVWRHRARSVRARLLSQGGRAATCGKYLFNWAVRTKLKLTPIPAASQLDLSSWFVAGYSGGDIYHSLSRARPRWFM
The experiment is described as follows: Modified HCV NS5B RdRp enzyme assay (with preincubation). The experiment is classed as biochemical. The following applies: modified method (with preincubation). The essentials: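 C-terminally truncated (Δ18) genotype 1b NS5B from E. coli was preincubated (14 nM) with compound, then reaction started with polyA template (0.2 nM), ³H-UTP (0.29 μM) and dT12 primer (20 nM) precaptured on SPA beads. Reaction ran 4 h at 30 °C in pH 7.5 Hepes buffer with 2% DMSO. IC50 came from seven concentrations.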

The structures appear in SMILES notation.

For orientation: EC50 means the midpoint of the concentration-response curve. What is called IC50 is the midpoint of a concentration-inhibition curve. The low end stands for greater potency, the high end for weaker potency.

`CN1CCN(C(=O)C2Cc3ccccc3-c3c(C4CCCCC4)c4ccc(C(=O)NC5(C(=O)Nc6ccc(/C=C/C(=O)O)cc6)CCCC5)cc4n3C2)CC1` (stereo not shown): in the experiment on HCV replicon, the concentration giving a half-maximal response (EC50) is 10 to 1000 nM. This compound yielded an IC50 in experiment [1] of 20 to 1000 nM.
On to `CN(C)CCNC(=O)C1Cc2ccccc2-c2c(C3CCCCC3)c3ccc(C(=O)NC4(C(=O)Nc5ccc(/C=C/C(=O)O)cc5)CCCC4)cc3n2C1` (stereo not shown), for which the EC50 in the experiment on HCV replicon fell in the range of 10 to 1000 nM. The same compound returned an IC50 in experiment [1] of 20 to 1000 nM.
The matching figures for `O=C(O)/C=C/c1ccc(NC(=O)C2(NC(=O)c3ccc4c(C5CCCCC5)c5n(c4c3)CC(C(=O)N3CCC(N4CCCC4)CC3)Cc3ccccc3-5)CCCC2)cc1` (stereo not shown): 10 to 1000 nM and 20 to 1000 nM.
Consider `O=C(O)/C=C/c1ccc(NC(=O)C2(NC(=O)c3ccc4c(C5CCCCC5)c5n(c4c3)CC(C(=O)N3CCCCC3)Cc3ccccc3-5)CCCC2)cc1` (stereo not shown), for which the concentration for a half-maximal effect (EC50) in the experiment with HCV replicon lay within 10 to 1000 nM. For the same compound, the half-maximal inhibitory concentration (IC50) in experiment [1] is 20 to 1000 nM.
The like results for `O=C(O)/C=C/c1ccc(NC(=O)C2(NC(=O)c3ccc4c(C5CCCCC5)c5n(c4c3)CC(C(=O)N3CCCC(O)C3)Cc3ccccc3-5)CCCC2)cc1` (stereo not shown) were, in that order, 10 to 1000 nM and 20 to 1000 nM.
Take `O=C(O)/C=C/c1ccc(NC(=O)C2(NC(=O)c3ccc4c(C5CCCCC5)c5n(c4c3)CC(C(=O)N3CCN(c4ccncc4)CC3)Cc3ccccc3-5)CCCC2)cc1` (stereo not shown): in the experiment with HCV replicon, the EC50 is 10 to 1000 nM. For the same compound, in experiment [1], the IC50 fell in the range of 20 to 1000 nM.
The matching figures for `COC(=O)/C=C/c1ccc(NC(=O)C2(NC(=O)c3ccc4c(C5CCCCC5)c5n(c4c3)C[C@@H](O)[C@@H](O)c3ncccc3-5)CCCC2)cc1`: 10 to 1000 nM and 20 to 1000 nM.
On to `O=C(O)/C=C/c1ccc(NC(=O)C2(NC(=O)c3ccc4c(C5CCCCC5)c5n(c4c3)C[C@@H](O)[C@@H](O)c3ncccc3-5)CCCC2)cc1`, for which the EC50 with HCV replicon lay in the range of 10 to 1000 nM. This compound had an IC50 in experiment [1] of 20 to 1000 nM.
The matching figures for `COC(=O)c1ccc2c(C3CCCCC3)c3n(c2c1)C[C@@H](O)[C@@H](O)c1ccccc1-3`: 1000 to 10000 nM and over 1000 nM.
The like results for `O=C(O)c1ccc2c(C3CCCCC3)c3n(c2c1)C[C@@H](O)[C@@H](O)c1ccccc1-3` were, in that order, 1000 to 10000 nM and 20 to 1000 nM.
The like results for `CN(C(=O)c1ccc2c(C3CCCCC3)c3n(c2c1)CCCc1ccccc1-3)C1(C(=O)O)CCCC1` were, in that order, over 10000 nM and 20 to 1000 nM.
With `CN(C)S(=O)(=O)NC(=O)c1ccc2c(C3CCCCC3)c3n(c2c1)C[C@@H](O)[C@@H](O)c1ccccc1-3`, the half-maximal effective concentration (EC50) in the experiment on HCV replicon was in the range of 10 to 1000 nM. In experiment [1], this compound displayed a 50% inhibitory concentration (IC50) of over 1000 nM.
The like results for `COC(=O)/C=C/c1ccc(NC(=O)C2(NC(=O)c3ccc4c(C5CCCCC5)c5n(c4c3)C[C@@H](O)[C@@H](O)c3ccccc3-5)CCCC2)cc1` were, in that order, under 100 nM and 20 to 1000 nM.
As to `O=C1Cc2ccccc2-c2c(C3CCCCC3)c3ccc(C(=O)O)cc3n2C1`, the 50% effective concentration (EC50) in the experiment with HCV replicon was in the range of 1000 to 10000 nM. This compound yielded an IC50 in experiment [1] of 20 to 1000 nM.
As for `O=C(O)/C=C/c1ccc(NC(=O)C2(NC(=O)c3ccc4c(C5CCCCC5)c5n(c4c3)C[C@@H](O)[C@@H](O)c3ccccc3-5)CCCC2)cc1`, the concentration for a half-maximal effect (EC50) with HCV replicon lay in the range of 10 to 1000 nM. Also, in experiment [1], the concentration for half-maximal inhibition (IC50) lay in the range of 20 to 1000 nM.
The matching figures for `COC(=O)c1ccc2c(C3CCCCC3)c3n(c2c1)CC(O)Cc1ccccc1-3` (stereo not shown): 10 to 1000 nM and over 1000 nM.
The matching figures for `CN(C)S(=O)(=O)NC(=O)c1ccc2c(C3CCCCC3)c3n(c2c1)CC=Cc1ncccc1-3`: 1000 to 10000 nM and 20 to 1000 nM.
The matching figures for `CN(C)S(=O)(=O)NC(=O)c1ccc2c(C3CCCCC3)c3n(c2c1)C[C@@H](O)[C@@H](O)c1ncccc1-3`: over 10000 nM and 20 to 1000 nM.
In the case of `O=C(O)c1ccc2c(C3CCCCC3)c3n(c2c1)CC(O)Cc1ccccc1-3` (stereo not shown), in the experiment on HCV replicon, the EC50 was 1000 to 10000 nM. Moreover, the IC50 in experiment [1] fell in the range of 20 to 1000 nM.
For `COC(=O)/C=C/c1ccc(NC(=O)C2(NC(=O)c3ccc4c(C5CCCCC5)c5n(c4c3)CC(=O)Cc3ccccc3-5)CCCC2)cc1`, the EC50 in the experiment on HCV replicon fell in the range of 10 to 1000 nM. The compound further came in with a concentration for half-maximal inhibition (IC50) in experiment [1] of over 1000 nM.
With `COC(=O)c1ccc2c(C3CCCCC3)c3n(c2c1)C/C(=N/O)Cc1ccccc1-3`, in the experiment with HCV replicon, the EC50 fell in the range of 10 to 1000 nM. The compound also displayed a half-maximal inhibitory concentration (IC50) in experiment [1] of over 1000 nM.
As for `O=C(O)c1ccc2c(C3CCCCC3)c3n(c2c1)C/C(=N/O)Cc1ccccc1-3`, in the experiment on HCV replicon, the EC50 is 1000 to 10000 nM. In experiment [1], the concentration for half-maximal inhibition (IC50) is 20 to 1000 nM.
`Cn1cnc(S(=O)(=O)NC(=O)c2ccc3c(C4CCCCC4)c4n(c3c2)CC=Cc2ncccc2-4)c1`: the EC50 in the experiment on HCV replicon was over 10000 nM. This compound came in with an IC50 in experiment [1] of 20 to 1000 nM.
For the compound `Cn1cnc(S(=O)(=O)NC(=O)c2ccc3c(C4CCCCC4)c4n(c3c2)C[C@@H](O)[C@@H](O)c2ncccc2-4)c1`, the half-maximal effective concentration (EC50) with HCV replicon is over 10000 nM. The compound also gave a half-inhibitory concentration (IC50) in experiment [1] of 20 to 1000 nM.
The matching figures for `CS(=O)(=O)NC(=O)c1ccc2c(C3CCCCC3)c3n(c2c1)CC=Cc1ncccc1-3`: over 10000 nM and 20 to 1000 nM.
The like results for `O=C(NS(=O)(=O)c1ccccc1)c1ccc2c(C3CCCCC3)c3n(c2c1)CC=Cc1ncccc1-3` were, in that order, over 10000 nM and 20 to 1000 nM.
For `O=C(NS(=O)(=O)Cc1ccccc1)c1ccc2c(C3CCCCC3)c3n(c2c1)CC=Cc1ncccc1-3`, the concentration for a half-maximal effect (EC50) with HCV replicon lay within 1000 to 10000 nM. Further, the IC50 in experiment [1] lay in the range of 20 to 1000 nM.
The like results for `COC(=O)c1ccc2c(C3CCCCC3)c3n(c2c1)CC(CO)Cc1ccccc1-3` (stereo not shown) were, in that order, 10 to 1000 nM and over 1000 nM.
The like results for `O=C(O)c1ccc2c(C3CCCCC3)c3n(c2c1)CC(CO)Cc1ccccc1-3` (stereo not shown) were, in that order, 1000 to 10000 nM and 20 to 1000 nM.
On to `O=C(NS(=O)(=O)Cc1ccccc1)c1ccc2c(C3CCCCC3)c3n(c2c1)CCCc1ncccc1-3`, for which the concentration giving a half-maximal response (EC50) in the experiment with HCV replicon lay in the range of 1000 to 10000 nM. Further, in experiment [1], the IC50 lay in the range of 20 to 1000 nM.
As to `O=C(NS(=O)(=O)c1ccccc1)c1ccc2c(C3CCCCC3)c3n(c2c1)C[C@@H](O)[C@@H](O)c1ncccc1-3`, the concentration for a half-maximal effect (EC50) with HCV replicon was 1000 to 10000 nM. In experiment [1], this compound showed an IC50 of 20 to 1000 nM.
The matching figures for `CN(C)S(=O)(=O)NC(=O)c1ccc2c(C3CCCCC3)c3n(c2c1)CC(O)Cc1ccccc1-3` (stereo not shown): 10 to 1000 nM and 20 to 1000 nM.
The like results for `CS(=O)(=O)NC(=O)c1ccc2c(C3CCCCC3)c3n(c2c1)CCCc1ncccc1-3` were, in that order, 1000 to 10000 nM and 20 to 1000 nM.
For `NC(=O)c1ccc2c(C3CCCCC3)c3n(c2c1)CCCc1ncccc1-3`, in the experiment on HCV replicon, the EC50 is 1000 to 10000 nM. Moreover, the IC50 in experiment [1] was 20 to 1000 nM.
Turning to `O=C(NS(=O)(=O)C1CC1)c1ccc2c(C3CCCCC3)c3n(c2c1)CC=Cc1ncccc1-3`, the half-maximal effective concentration (EC50) with HCV replicon is 1000 to 10000 nM. Also, in experiment [1], the IC50 was 20 to 1000 nM.
The matching figures for `CN(C)S(=O)(=O)NC(=O)c1ccc2c(C3CCCCC3)c3n(c2c1)CC(C(=O)N1CCN(c2ccncc2)CC1)=Cc1ccccc1-3`: 10 to 1000 nM and 20 to 1000 nM.
Take `COC(=O)c1ccc2c(C3CCCCC3)c3n(c2c1)CC(C#N)=Cc1ccccc1-3`: the EC50 with HCV replicon fell in the range of 1000 to 10000 nM. The same compound returned a half-maximal inhibitory concentration (IC50) in experiment [1] of over 1000 nM.
For the compound `COC(=O)c1ccc2c(C3CCCCC3)c3n(c2c1)C=C(C#N)Cc1ccccc1-3`, the EC50 with HCV replicon fell in the range of 10 to 1000 nM. This compound came in with a half-inhibitory concentration (IC50) in experiment [1] of over 1000 nM.
The matching figures for `N#CC1=Cn2c(c(C3CCCCC3)c3ccc(C(=O)O)cc32)-c2ccccc2C1`: 1000 to 10000 nM and 20 to 1000 nM.
The matching figures for `COC(=O)c1ccc2c(C3CCCCC3)c3n(c2c1)CC(C(=O)O)=Cc1ccccc1-3`: 10 to 1000 nM and 20 to 1000 nM.
The matching figures for `CN(C)C(=O)c1ccc2c(C3CCCCC3)c3n(c2c1)CC(C(=O)N1CCOCC1)=Cc1ccccc1-3`: 1000 to 10000 nM and 20 to 1000 nM.
